Among the data in ChEMBL document CHEMBL1136944, “Serratezomines D and E, new Lycopodium alkaloids from Lycopodium serratum var. serratum” (Bioorg Med Chem Lett, 2009) are IC50 and Activity values, retold here.

Activity calls are given as the source filed them. The calls are words filed in the database; no cut-off is given here.

The target of one assay is Acetylcholinesterase (Electrophorus electricus, UniProt O42275). As to the kind of experiment: (§1) Inhibition of Electrophorus electricus acetylcholinesterase by rapid colorimetric determination.
Sequence of Acetylcholinesterase (O42275 whole entry): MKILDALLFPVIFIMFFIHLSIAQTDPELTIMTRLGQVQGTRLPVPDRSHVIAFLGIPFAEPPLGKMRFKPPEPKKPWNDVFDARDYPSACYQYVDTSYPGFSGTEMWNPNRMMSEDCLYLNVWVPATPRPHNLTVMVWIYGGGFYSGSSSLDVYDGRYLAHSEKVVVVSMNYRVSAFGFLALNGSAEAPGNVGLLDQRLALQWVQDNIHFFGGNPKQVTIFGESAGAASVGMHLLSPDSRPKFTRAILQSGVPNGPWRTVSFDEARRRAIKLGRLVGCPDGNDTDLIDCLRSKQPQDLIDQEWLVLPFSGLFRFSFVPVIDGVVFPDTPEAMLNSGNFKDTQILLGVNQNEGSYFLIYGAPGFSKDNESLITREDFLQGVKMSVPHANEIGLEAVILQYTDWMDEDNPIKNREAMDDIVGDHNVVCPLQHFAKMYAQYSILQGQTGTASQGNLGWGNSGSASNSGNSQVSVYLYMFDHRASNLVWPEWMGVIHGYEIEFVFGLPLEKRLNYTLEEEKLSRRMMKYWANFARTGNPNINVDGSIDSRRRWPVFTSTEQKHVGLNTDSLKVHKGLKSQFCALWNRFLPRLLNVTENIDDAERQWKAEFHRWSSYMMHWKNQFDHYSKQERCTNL
In assay [1] the target is Acetylcholinesterase (Electrophorus electricus) (UniProt O42275). The assay is described as §1.
Sequence of Acetylcholinesterase (Electrophorus electricus) (O42275 24-633 limits assumed): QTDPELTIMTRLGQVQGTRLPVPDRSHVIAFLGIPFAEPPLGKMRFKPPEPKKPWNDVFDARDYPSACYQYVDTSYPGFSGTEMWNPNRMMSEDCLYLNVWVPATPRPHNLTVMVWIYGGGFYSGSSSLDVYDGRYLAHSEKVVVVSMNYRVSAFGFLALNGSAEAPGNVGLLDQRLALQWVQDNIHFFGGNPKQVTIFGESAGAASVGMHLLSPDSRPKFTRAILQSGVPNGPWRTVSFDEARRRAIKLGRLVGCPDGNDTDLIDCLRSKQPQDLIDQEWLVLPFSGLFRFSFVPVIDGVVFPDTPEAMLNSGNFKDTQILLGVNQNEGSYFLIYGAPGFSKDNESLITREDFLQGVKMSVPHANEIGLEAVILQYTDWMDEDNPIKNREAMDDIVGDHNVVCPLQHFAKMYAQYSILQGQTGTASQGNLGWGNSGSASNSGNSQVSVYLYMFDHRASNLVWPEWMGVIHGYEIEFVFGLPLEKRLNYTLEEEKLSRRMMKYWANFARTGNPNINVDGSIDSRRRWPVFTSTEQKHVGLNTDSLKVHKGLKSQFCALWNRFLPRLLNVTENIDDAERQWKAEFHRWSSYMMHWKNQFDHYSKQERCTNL

The IC50 is the point on the concentration scale where inhibition reaches its midpoint. Read a high IC50 as weaker potency.

For the compound `C[C@@H]1C[C@@H]2C[C@H]3N[C@H](C[C@H]4C[C@@H](C)C[C@@H]5[C@@H]4CCCN5C=O)CC[C@@H]3[C@H]3C[C@H]2[C@@H](C1)N(C)C3` [SERRATEZOMINE D], the IC50 against Acetylcholinesterase amounted to 600 µM.

As to `CC(=O)N1CCC[C@H]2[C@@H](C[C@@H]3CC[C@@H]4[C@@H]5C[C@@H]6[C@@H](C[C@@H](C)C[C@@H]6N(C)C5)C[C@H]4N3)C[C@H](C)C[C@H]21`, the result in assay [1] was inactive.

Take `CC(=O)N1CCC[C@@H]2[C@@H](C[C@H]3CC[C@@H]4[C@H]5C[C@@H]6[C@@H](C[C@@H](C)C[C@@H]6N(C)C5)C[C@H]4N3)C[C@H](C)C[C@@H]21`: the outcome in assay [1] was inactive.

Regarding `CC(=O)N1CCC[C@H]2[C@@H](C[C@H]3CC[C@]4(O)[C@@H]5C[C@@H]6[C@@H](C[C@@H](C)C[C@@H]6N(C)C5)C[C@H]4N3)C[C@H](C)C[C@H]21`, the result in assay [1] was inactive.
